Reference: US8815857B2 (Boehringer Ingelheim International GmbH, priority 2011, dated 2014)
Values after ≈ are worked out from the molar mass of the structure shown.

How the values were obtained:
[1] = target: T1, Recombinant human soluble guanylate cyclase (sGC), alpha 1 / beta 1 subunits, heme-free (Homo sapiens, UniProt Q02108+Q02153); assay: Molecular assay: cGMP formation by heme-free recombinant sGC (CisBio cGMP detection kit); assay type: biochemical; conditions: 300 pM heme-free sGC, 37° C., 60 min, cGMP readout; read-out: EC50 nM, Activity of Compounds in Molecular Assay
T1 construct: histidine tag (C); made in house; host or cells: Sf9 insect cells (baculovirus coinfection)
T1 sequence (Q02108 1-690 partner): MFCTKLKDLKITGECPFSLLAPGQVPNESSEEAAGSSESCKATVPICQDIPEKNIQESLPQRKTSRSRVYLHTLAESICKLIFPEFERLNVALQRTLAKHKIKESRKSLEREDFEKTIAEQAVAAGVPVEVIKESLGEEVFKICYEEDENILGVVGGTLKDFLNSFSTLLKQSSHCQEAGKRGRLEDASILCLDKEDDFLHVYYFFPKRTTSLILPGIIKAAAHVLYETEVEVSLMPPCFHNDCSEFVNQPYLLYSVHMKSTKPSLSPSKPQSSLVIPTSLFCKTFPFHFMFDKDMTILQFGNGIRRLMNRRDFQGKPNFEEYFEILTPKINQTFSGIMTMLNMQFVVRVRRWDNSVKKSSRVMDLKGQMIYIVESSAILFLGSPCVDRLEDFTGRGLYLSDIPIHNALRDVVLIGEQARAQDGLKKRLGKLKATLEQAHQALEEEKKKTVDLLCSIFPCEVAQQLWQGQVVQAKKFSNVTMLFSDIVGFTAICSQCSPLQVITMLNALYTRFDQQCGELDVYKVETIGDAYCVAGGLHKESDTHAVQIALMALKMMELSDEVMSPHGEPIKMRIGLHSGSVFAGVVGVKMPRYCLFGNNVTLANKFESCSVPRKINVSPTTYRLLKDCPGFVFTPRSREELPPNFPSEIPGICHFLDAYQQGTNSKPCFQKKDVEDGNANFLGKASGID
T1 sequence (Q02153 1-619): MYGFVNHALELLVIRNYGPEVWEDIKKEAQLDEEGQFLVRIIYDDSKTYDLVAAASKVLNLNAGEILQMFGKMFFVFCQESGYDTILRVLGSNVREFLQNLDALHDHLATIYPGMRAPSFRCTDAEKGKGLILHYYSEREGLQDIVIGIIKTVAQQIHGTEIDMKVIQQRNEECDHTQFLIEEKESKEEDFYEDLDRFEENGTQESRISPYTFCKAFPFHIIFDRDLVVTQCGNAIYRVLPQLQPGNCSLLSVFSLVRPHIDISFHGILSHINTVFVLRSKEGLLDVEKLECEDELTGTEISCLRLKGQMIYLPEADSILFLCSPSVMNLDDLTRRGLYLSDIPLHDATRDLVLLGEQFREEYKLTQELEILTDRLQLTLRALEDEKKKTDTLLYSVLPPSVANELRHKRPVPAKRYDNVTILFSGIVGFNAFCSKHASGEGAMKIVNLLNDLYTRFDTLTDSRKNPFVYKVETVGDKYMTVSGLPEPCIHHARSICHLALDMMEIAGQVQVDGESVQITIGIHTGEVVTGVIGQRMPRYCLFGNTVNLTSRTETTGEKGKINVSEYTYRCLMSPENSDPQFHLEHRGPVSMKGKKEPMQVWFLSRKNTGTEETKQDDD
Method: Recombinant human soluble guanylate cyclase (sGC) is purified from Sf9 insect cells coinfected with baculoviruses expressing the alpha 1 or beta 1 subunit of sGC, both with a C-terminal histidine tag. Heme-free sGC is prepared by treating cell lysate with a final concentration of 0.5% Tween 20 prior to purification on a nickel affinity column.
sGC catalyzes the conversion of guanosine-5′-triphosphate (GTP) to cyclic guanosine monophosphate (cGMP). The activity of sGC is measured in vitro using the commercially available CisBio cGMP detection kit (catalog # 62GM2PEB) in a 384 well format. In brief, 300 pM heme-free sGC is incubated in reaction buffer (50 mM MOPS pH 6.8, 0.2 N KOH, 50 mM NaCl, 2 mM MgCl2, 0.1% BSA, 1.25 mM IBMX, 0.25 mM TCEP, 50 nM GTP) in the presence or absence of dilutions of test compounds diluted in DMSO (final concentration of 1%) in a volume of 10 microL at 37° C. for 60 min. Undiluted reaction products or an 80-fold dilution of reaction products (10 microL of either) prepared in reaction buffer containing 0.2 mM TCEP and 10 mM EDTA is mixed with 5 microL of d2-cGMP plus 5 microL of Eu^3+ cryptate-labeled anti-cGMP, each diluted in buffer containing 0.1 M KPO4 pH 7.5, 0.4 M KF, 20 mM EDTA, 0.2% BSA. After a one h incubation at room temperature in the dark, the mixtures are quantified on an EnVision plate reader (PerkinElmer) according to manufacturer instructions (laser excitation 337 nm, emission 620 and 665 nm). The ratio at each compound concentration is converted to nM cGMP using the linear portion of a calibration curve. Log compound concentration is plotted against combined undiluted and diluted nM cGMP values to determine the EC50 for each curve.

[2] = Assessment of solubility: HT solubility in pION buffer, UV spectrophotometry; conditions: 16-19 h incubation, 1.0% DMSO; for solubility: pION system solution buffer, kinetic from dmso stock
[3] = pH 4.5, pH 4.5, aqueous buffer, Solubility (pH 4.5), pH 4.5 buffer
[4] = pH 7.4, pH 7.4, aqueous buffer, Solubility (pH 7.4), pH 7.4 buffer

SMILES	EC50 [1] [nM]	solubility [2, 3] [µg/mL]	solubility [2, 4] [µg/mL]	Solubility (pH 4.5) ([2]; pH 4.5 buffer) [μg/mL]	Solubility (pH 7.4) ([2]; pH 7.4 buffer) [μg/mL]
Cc1ccc(OCc2ccc(CN3CCOCC3)cc2C#N)c(-c2csc(N3CC[C@@H](C(=O)O)[C@@H](C)C3)n2)c1 (relative stereo) [Compound 69, cis-1-[4-[2-[[2-cyano-4-(morpholinomethyl)phenyl]methoxy]-5-methyl-phenyl]thiazol-2-yl]-3-methyl-piperidine-4-carboxylic acid]	72	> 65	> 65	–	–
Cc1ccc(OCc2ccc(CN3CCOCC3)cc2C)c(-c2csc(N3CC[C@@H](C(=O)O)C3)n2)c1 (single isomer, unassigned) [Compound 5, R-1-{4-[5-methyl-2-(2-methyl-4-morpholin-4-ylmethyl-benzyloxy)-phenyl]-thiazol-2-yl}-pyrrolidine-3-carboxylic acid]	2000	37 (≈ 72.9 µM)	40 (≈ 78.8 µM)	–	–
Cc1ccc(OCc2ccc(CN3CCOCC3)cc2C)c(-c2csc(N3CC[C@@H](C(=O)O)[C@@H](C)C3)n2)c1 (single isomer, unassigned) [Compound 50]	520	18 (≈ 33.6 µM)	> 53	–	–
Cc1cc(C(=O)N2CCCCC2)ccc1COc1ccc(F)cc1-c1csc(N2CCC(C(=O)O)C(C)C2)n1 (stereo not drawn) [Compound 1]	60	0.85 (≈ 1.54 µM)	> 100	–	–
Cc1cc(CN2CCOCC2)ccc1COc1ccccc1-c1csc(N2CCC(C(=O)O)C(C)C2)n1 (stereo not drawn) [Compound 2]	320	–	–	>71	>71
Cc1ccc(OCc2ccc(CN3CCOCC3)cc2C)c(-c2csc(NCCC(=O)O)n2)c1 [Compound 3]	1300	> 52	> 52	–	–
Cc1ccc(OCc2ccc(CN3CCOCC3)cc2C)c(-c2csc(NCCCC(=O)O)n2)c1 [Compound 4]	760	> 54	> 54	–	–
Cc1ccc(OCc2ccc(CN3CCOCC3)cc2C)c(-c2csc(N3CCC(C(=O)O)C3)n2)c1 (stereo not drawn) [Compound 6]	610	> 62	> 62	–	–
Cc1cc(C(=O)N2CCCCC2)ccc1COc1ccccc1-c1csc(C2=CCC(C(=O)O)CC2)n1 (stereo not drawn) [Compound 8]	330	0.15 (≈ 0.29 µM)	> 51	–	–
Cc1cc(C(=O)N2CCCCC2)ccc1COc1ccccc1-c1csc(N2CC3C(C2)C3C(=O)O)n1 (stereo not drawn) [Compound 9]	680	5.6 (≈ 10.8 µM)	> 51	–	–
Cc1ccc(OCc2ccc(CN3CCOCC3)cc2C)c(-c2csc(C3=CCC(C(=O)O)CC3)n2)c1 (stereo not drawn) [Compound 10]	4900	14 (≈ 27 µM)	22 (≈ 42.4 µM)	–	–
Cc1cc(C(=O)N2CCCCC2)ccc1COc1ccccc1-c1csc([C@H]2CC[C@@H](C(=O)O)CC2)n1 [Compound 11]	2300	–	> 51	0.1	–
Cc1cc(C(=O)N2CCCCC2)ccc1COc1ccccc1-c1csc([C@H]2CC[C@H](C(=O)O)CC2)n1 [Compound 12]	4000	–	> 51	0.1	–
Cc1ccc(OCc2ccc(C(=O)N3CCCC3)cc2C)c(-c2csc(N3CCC(C(=O)O)CC3)n2)c1 [Compound 13]	120	–	–	17	>51
Cc1ccc(OCc2ccc(CN3CCOCC3)cc2C)c(-c2csc(N3CC4C(C3)C4C(=O)O)n2)c1 (stereo not drawn) [Compound 14]	4700	> 63	> 63	–	–
Cc1cc(C(=O)N2CCCC2)ccc1COc1c(C)cccc1-c1csc(N2CCC(C(=O)O)CC2)n1 [Compound 15]	190	13 (≈ 25 µM)	> 51	–	–
Cc1cc(C(=O)N2CCCCC2)ccc1COc1ccccc1-c1csc(N2CCC(C(=O)O)CC2)n1 [Compound 17]	79	0.7 (≈ 1.35 µM)	> 51	–	–
Cc1ccc(OCc2ccc(CN3CCOCC3)cc2C)c(-c2csc(N3CCC(C(=O)O)CC3)n2)c1 [Compound 20, 1-{4-[5-methyl-2-(2-methyl-4-morpholin-4-ylmethyl-benzyloxy)-phenyl]-thiazol-2-yl}-piperidine-4-carboxylic acid]	140	33 (≈ 63.3 µM)	36 (≈ 69 µM)	–	–
Cc1cc(CN2CCOCC2)ccc1COc1c(C)cccc1-c1csc(N2CCC(C(=O)O)CC2)n1 [Compound 21]	70	> 52	> 52	–	–
Cc1ccc(OCc2ccc(CN3CCOCC3)cc2C)c(-c2csc(N3CCCC(C(=O)O)C3)n2)c1 (stereo not drawn) [Compound 22]	1600	> 63	> 63	–	–
Cc1ccc(OCc2ccc(CN3CCOCC3)cc2C)c(-c2csc(N3CCC(CC(=O)O)C3)n2)c1 (stereo not drawn) [Compound 23]	3200	> 56	> 56	–	–
Cc1cc(CN2CCOCC2)ccc1COc1ccccc1-c1csc(N2CCC(C(=O)O)C(C)C2)n1 (stereo not drawn) [Compound 24]	510	> 59	> 59	–	–
Cc1ccc(OCc2ccc(CNCC(C)(C)O)cc2C)c(-c2csc(N3CCC(C(=O)O)CC3)n2)c1 [Compound 25]	1300	> 63	> 63	–	–
Cc1ccc(OCc2ccc(CNC(C)(C)CO)cc2C)c(-c2csc(N3CCC(C(=O)O)CC3)n2)c1 [Compound 26]	2000	> 63	> 63	–	–
Cc1cc(CN2CCOCC2)ccc1COc1ccc(F)cc1-c1csc(N2CCC(C(=O)O)CC2)n1 [Compound 28]	200	> 52	> 52	–	–
Cc1ccc(OCc2ccc(CN3CCCCC3)cc2C#N)c(-c2csc(N3CCC(C(=O)O)CC3)n2)c1 [Compound 29]	440	> 64	5.2 (≈ 9.8 µM)	–	–
Cc1ccc(OCc2ccc(C(=O)N3CCCC3)cc2C#N)c(-c2csc(N3CCC(C(=O)O)CC3)n2)c1 [Compound 30, 1-[4-[2-[[2-cyano-4-(pyrrolidine-1-carbonyl)phenyl]methoxy]-5-methyl-phenyl]thiazol-2-yl]piperidine-4-carboxylic acid]	61	3.1 (≈ 5.84 µM)	> 53	–	–
Cc1cccc(-c2csc(N3CCC(C(=O)O)CC3)n2)c1OCc1ccc(C(=O)N2CCCC2)cc1C#N [Compound 31]	250	25 (≈ 47.1 µM)	> 53	–	–
